Values quoted from earlier work as cited in patent US20190388350A1, “FORMULATION” (priority 2018, published 2019).
Counter-ions that a name gives are not always drawn.

## CCN(C)C(=O)Oc1cccc([C@H](C)N(C)C)c1 [rivastigmine tartrate]
  pKa: 8.9
